The source of these data is ChEMBL document CHEMBL1126603, “Synthesis and pharmacokinetics of a dihydropyridine chemical delivery system for the antiimmunodeficiency virus agent dideoxycytidine” (J Med Chem, 1993).

The test system of the assay is MT4. The assay is described as follows: Growth inhibition of HIV-1 in human lymphocyte MT-4 cells. Format: functional, cell-based.
`CN1C=CCC(C(=O)Nc2ccn(C3CCC(COC(=O)C4=CN(C)C=CC4)O3)c(=O)n2)=C1` (centres undefined): the IC50 (in general, the concentration that inhibits the measured activity by half) stood at 1900 nM.

`CN1C=CCC(C(=O)OCC2CCC(n3ccc(N)nc3=O)O2)=C1` (centres undefined) yielded a half-inhibitory concentration (IC50) of 1200 nM.

`Nc1ccn([C@H]2CC[C@@H](CO)O2)c(=O)n1` (stereo in doubt; form 1) [ZALCITABINE] displayed an IC50 of 1000 nM.

In turn, `CN1C=CCC(C(=O)Nc2ccn(C3CCC(CO)O3)c(=O)n2)=C1` (centres undefined) returned an IC50 of 1200 nM.
